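96-well plates; 48 h exposure; 5 concentrations. Endpoints by linear interpolation between flanking doses. Not reached: highest tested concentration assigned. The concentration for 50% growth inhibition is given as GI50.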 Active and inactive are the calls of the source. Cut-off read from the data, not from the text of the source: active = GI50 up to about 1.1 µM and inactive = higher.
What was measured:
Assay in all cases: inhibition of tumour cell growth, NCI panel, 48 h
SK-MEL-2 = test system: SK-MEL-2
LOX IMVI = test system: LOX IMVI
SF-539 = test system: SF-539
PC-3 = test system: PC-3
KM12 = test system: KM12
UO-31 = test system: UO-31
SN12C = test system: SN12C
SNB-75 = test system: SNB-75
SNB-19 = test system: SNB-19
OVCAR-4 = test system: OVCAR-4
MDA-N = test system: MDA-N
MDA-MB-435 = test system: MDA-MB-435
SK-OV-3 = test system: SK-OV-3
DU-145 = test system: DU-145
A498 = test system: A498
HCT-15 = test system: HCT-15
SR = test system: SR
A549 = test system: A549
U-251 = test system: U-251
NCI-H23 = test system: NCI-H23

SMILES	GI50 (SK-MEL-2)	GI50 (LOX IMVI)	GI50 (SF-539)	GI50 (PC-3)	GI50 (KM12)	GI50 (UO-31)	GI50 (SN12C)	GI50 (SNB-75)	GI50 (SNB-19)	GI50 (OVCAR-4)	GI50 (MDA-N)	GI50 (MDA-MB-435)	GI50 (SK-OV-3)	GI50 (DU-145)	GI50 (A498)	GI50 (HCT-15) [µM]	GI50 (SR)	GI50 (A549)	GI50 (U-251)	GI50 (NCI-H23)
Cc1ccc(O)c(C(c2cccc(C(c3cc(C)ccc3O)c3cc(C)ccc3O)c2)c2cc(C)ccc2O)c1	2.1 µM (inactive)	1.54 µM (inactive)	1.75 µM (inactive)	1.77 µM (inactive)	1.65 µM (inactive)	1.91 µM (inactive)	1.83 µM (inactive)	1.93 µM (inactive)	1.89 µM (inactive)	2.22 µM (inactive)	1.79 µM (inactive)	1.75 µM (inactive)	1.87 µM (inactive)	1.44 µM (inactive)	1.53 µM (inactive)	1.87	2.73 µM (inactive)	1.97 µM (inactive)	1.77 µM (inactive)	1.75 µM (inactive)
Cc1cc(O)c2c(c1)CC(O)C1=C2C(=O)c2c(O)ccc(OC3CC(O)C(OC4CC(OC5CCC(O)C(C)O5)C(O)C(C)O4)C(C)O3)c2C1=O (centres undefined)	1.58 µM (inactive)	1.33 µM (inactive)	1.85 µM (inactive)	1.71 µM (inactive)	1.74 µM (inactive)	1.5 µM (inactive)	1.73 µM (inactive)	2.74 µM (inactive)	1.6 µM (inactive)	1.79 µM (inactive)	1.84 µM (inactive)	1.03 µM (active)	2.33 µM (inactive)	1.72 µM (inactive)	2.33 µM (inactive)	1.96	0.324 µM (active)	2.33 µM (inactive)	1.32 µM (inactive)	1.83 µM (inactive)
CC1=NC2(CCCCC2)N(Cl)C(=O)C1SC#N (centres undefined)	20 µM (inactive)	10.7 µM (inactive)	19.5 µM (inactive)	15.8 µM (inactive)	21.4 µM (inactive)	18.8 µM (inactive)	19.4 µM (inactive)	20.7 µM (inactive)	23.4 µM (inactive)	20.8 µM (inactive)	15.8 µM (inactive)	19.2 µM (inactive)	> 10 µM (inactive)	25.2 µM (inactive)	> 100 µM (inactive)	23.8	> 100 µM (inactive)	0.0504 µM (active)	19.4 µM (inactive)	25.1 µM (inactive)
NCCCN(CCCCN(CCCN)CCCc1ccccc1)CCCc1ccccc1	1.69 µM (inactive)	2.36 µM (inactive)	1.86 µM (inactive)	3.22 µM (inactive)	2.55 µM (inactive)	2.19 µM (inactive)	3.9 µM (inactive)	1.93 µM (inactive)	1.19 µM (inactive)	4.89 µM (inactive)	1.74 µM (inactive)	1.74 µM (inactive)	4.16 µM (inactive)	8.11 µM (inactive)	13.1 µM (inactive)	1.96	2.31 µM (inactive)	3.23 µM (inactive)	1.98 µM (inactive)	4.32 µM (inactive)
COC(=O)C1(SC)C2CCC3C2CCC31 (centres undefined)	> 100 µM (inactive)	> 100 µM (inactive)	> 100 µM (inactive)	> 100 µM (inactive)		> 100 µM (inactive)	> 100 µM (inactive)	> 100 µM (inactive)	> 100 µM (inactive)	> 100 µM (inactive)	> 100 µM (inactive)	> 100 µM (inactive)	> 100 µM (inactive)	> 100 µM (inactive)	> 100 µM (inactive)	> 100	> 100 µM (inactive)	> 100 µM (inactive)	> 100 µM (inactive)	> 100 µM (inactive)
COC(=O)C1C(=O)C(C(=O)OC)C2CCC1N2C (centres undefined)	20 µM (inactive)	35.4 µM (inactive)	33.5 µM (inactive)	29.4 µM (inactive)	> 100 µM (inactive)	59.8 µM (inactive)	32.1 µM (inactive)	35.2 µM (inactive)	> 100 µM (inactive)	39.8 µM (inactive)	23.8 µM (inactive)	24.8 µM (inactive)	28.4 µM (inactive)	28.8 µM (inactive)	76.9 µM (inactive)	1.84	32.1 µM (inactive)	> 100 µM (inactive)	56.1 µM (inactive)	0.571 µM (active)
O=C(N/N=C/c1ccc([N+](=O)[O-])cc1)c1cccc2nc3ccccc3nc12	> 100 µM (inactive)	> 85.5 µM (inactive)	> 38.5 µM (inactive)	> 75.9 µM (inactive)	> 100 µM (inactive)	> 71.4 µM (inactive)	> 100 µM (inactive)	> 100 µM (inactive)	> 55.8 µM (inactive)	> 100 µM (inactive)	> 100 µM (inactive)	> 100 µM (inactive)	> 56.9 µM (inactive)	65 µM (inactive)	> 100 µM (inactive)	> 55.7	> 39.5 µM (inactive)	1.24 µM (inactive)	41.5 µM (inactive)	12.2 µM (inactive)

From ChEMBL document CHEMBL1201862, “PubChem BioAssay data set” (2004)
